Results reported in the NIST ThermoML archive (doi:10.1016/j.jct.2012.09.012).

Test: molar heat capacity at constant pressure; xn = mol fraction of the nth substance listed
Conditions: 101 kPa, Liquid, Small sample (50 mg) DSC

CC1=CC[C@H]2C[C@@H]1C2(C)C [(S)-2-pinene] + C=C1CCC2CC1C2(C)C
molar heat capacity at constant pressure [J/K/mol]
Conditions	x1 = 0.1002	x1 = 0.2041	x1 = 0.2997	x1 = 0.3922	x1 = 0.5012	x1 = 0.5907	x1 = 0.7026	x1 = 0.7987	x1 = 0.9002	x1 = 1
313.16 K	249.31	250.67	250.67	252.03	250.67	249.31	250.67	252.03	253.4	250.67
318.16 K	252.03	252.03	252.03	253.4	253.4	252.03	253.4	253.4	254.76	252.03
323.16 K	256.12	254.76	256.12	256.12	254.76	254.76	256.12	254.76	256.12	256.12
328.22 K	257.48	256.12	257.48	258.84	256.12	257.48	258.84	256.12	258.84	257.48
333.22 K	260.21	258.84	258.84	260.21	258.84	261.57	260.21	257.48	260.21	260.21
338.19 K	264.29	261.57	262.93	262.93	262.93	262.93	262.93	261.57	262.93	264.29
343.18 K	267.02	265.66	267.02	265.66	265.66	267.02	264.29	264.29	265.66	267.02
348.15 K	269.74	268.38	269.74	268.38	269.74	268.38	267.02	267.02	268.38	269.74
353.18 K	273.83	272.47	272.47	271.11	272.47	272.47	269.74	269.74	269.74	272.47
358.15 K	275.19	273.83	273.83	273.83	275.19	275.19	272.47	271.11	272.47	275.19
363.18 K	277.92	276.56	276.56	276.56	277.92	277.92	273.83	275.19	275.19	277.92
368.17 K	279.28	279.28	279.28	279.28	280.64	280.64	276.56	276.56	277.92	279.28
373.21 K	283.37	282	282	282	282	282	279.28	280.64	279.28	282
378.2 K	284.73	283.37	284.73	284.73	284.73	284.73	280.64	282	282	284.73
383.17 K	287.45	286.09	287.45	287.45	286.09	287.45	284.73	283.37	284.73	287.45
388.2 K	291.54	288.82	290.18	291.54	290.18	290.18	288.82	286.09	287.45	291.54
393.17 K	292.9	291.54	292.9	294.27	292.9	291.54	291.54	288.82	288.82	292.9
398.2 K	294.27	295.63	294.27	296.99	295.63	294.27	294.27	292.9	292.9	294.27
403.19 K	296.99	298.35	296.99	299.71	298.35	296.99	295.63	295.63	294.27	296.99
408.16 K	299.71	301.08	299.71	303.8	302.44	299.71	299.71	298.35	296.99	299.71
413.19 K	301.08	302.44	301.08	305.16	305.16	301.08	301.08	299.71	299.71	301.08
418.19 K	303.8	305.16	303.8	306.53	306.53	302.44	303.8	303.8	302.44	303.8
